This is an account of results in ChEMBL document CHEMBL5241054, “Effective anti-aromatase therapy to battle against estrogen-mediated breast cancer: Comparative SAR/QSAR assessment on steroidal aromatase inhibitors” (Eur J Med Chem, 2020).

The target of one assay is T1, Aromatase (Homo sapiens, UniProt P11511).
T1 sequence (P11511 whole entry): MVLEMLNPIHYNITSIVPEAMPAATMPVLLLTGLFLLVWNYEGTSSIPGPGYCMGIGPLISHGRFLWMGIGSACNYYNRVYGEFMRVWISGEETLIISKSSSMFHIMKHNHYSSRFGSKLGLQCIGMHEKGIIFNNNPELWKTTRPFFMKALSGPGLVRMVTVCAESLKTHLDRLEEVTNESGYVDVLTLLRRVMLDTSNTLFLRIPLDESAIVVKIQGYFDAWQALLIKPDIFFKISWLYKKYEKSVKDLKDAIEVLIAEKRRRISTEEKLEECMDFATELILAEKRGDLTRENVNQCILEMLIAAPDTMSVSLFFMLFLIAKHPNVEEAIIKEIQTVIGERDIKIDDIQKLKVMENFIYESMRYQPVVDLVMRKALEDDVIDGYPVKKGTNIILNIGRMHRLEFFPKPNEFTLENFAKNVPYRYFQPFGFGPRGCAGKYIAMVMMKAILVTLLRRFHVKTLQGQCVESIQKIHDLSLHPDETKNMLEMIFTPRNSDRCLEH
The term IC50 denotes the point on the concentration scale where inhibition reaches its midpoint. For `CO[C@@H]1C[C@@]2(C)C(=CC1=O)CC[C@@H]1[C@@H]2CC[C@]2(C)C(=O)CC[C@@H]12`, the IC50 is 11.8 µM. Still for that read-out and setting: the same measure for `C[C@]12C=CC(=O)C=C1C[C@@H](CCc1ccc([N+](=O)[O-])cc1)[C@@H]1[C@@H]2CC[C@]2(C)C(=O)CC[C@@H]12`: 0.0149 µM.

Turning to `CSC1=C2CC[C@@H]3[C@H](CC[C@]4(C)C(=O)CC[C@@H]34)[C@@]2(C)CCC1=O`, the IC50 was 4.4 µM. Take `C[C@]12C[C@@H](O)C(=O)C=C1CC[C@@H]1[C@@H]2CC[C@]2(C)C(=O)CC[C@@H]12`: the IC50 is 15.3 µM. In the case of `CCCCCC(=O)O[C@H]1C[C@@H]2[C@H](CC[C@]3(C)C(=O)CC[C@@H]23)[C@@]2(C)CCC(=O)C=C12`, inhibition was half-maximal at 0.0879 µM (IC50). Take `C[C@]12C[C@@H](Br)C(=O)C=C1CC[C@@H]1[C@@H]2CC[C@]2(C)C(=O)CC[C@@H]12`: 2.2 µM corresponded to half-maximal inhibition (IC50). `C[C@]12C=CC(=O)C=C1C=C(CCc1ccccc1)[C@@H]1[C@@H]2CC[C@]2(C)C(=O)CC[C@@H]12`: the IC50 was 0.172 µM. As for `C[C@]12C=CC(=O)C=C1C[C@@H](CCc1ccc(N)cc1)[C@@H]1[C@@H]2CC[C@]2(C)C(=O)CC[C@@H]12`, the IC50 was 0.0187 µM.

`CCO[C@@H]1C[C@@]2(C)C(=CC1=O)CC[C@@H]1[C@@H]2CC[C@]2(C)C(=O)CC[C@@H]12` had a half-maximal inhibitory concentration (IC50) of 11.8 µM.

On to `C[C@]12C[C@@H](Cl)C(=O)C=C1CC[C@@H]1[C@@H]2CC[C@]2(C)C(=O)CC[C@@H]12`, for which inhibition was half-maximal at 1.4 µM (IC50). For `C[C@]12CCC(=O)C(O)=C1CC[C@@H]1C2=CC[C@]2(C)C(=O)CC[C@@H]12`, it took 0.35 µM to reach half-maximal inhibition (IC50).

Turning to `COCSC1=C2CC[C@@H]3[C@H](CC[C@]4(C)C(=O)CC[C@@H]34)[C@@]2(C)CCC1=O`, half-maximal inhibition (IC50) was put at 10 µM.

Consider `C[C@]12CCC(=O)C=C1[C@@H](Oc1ccccc1)C[C@@H]1[C@@H]2CC[C@]2(C)C(=O)CC[C@@H]12`, for which 0.1 µM corresponded to half-maximal inhibition (IC50).

`C[C@@H]1C[C@@]2(C=O)C(=CC1=O)CC[C@@H]1[C@@H]2CC[C@]2(C)C(=O)CC[C@@H]12` had an IC50 of 12 µM.

Consider `C[C@]12CCC(=O)C(SCCl)=C1CC[C@@H]1C2=CC[C@]2(C)C(=O)CC[C@@H]12`, for which the IC50 is 0.859 µM.

`CCCCC(=O)O[C@H]1C[C@@H]2[C@H](CC[C@]3(C)C(=O)CC[C@@H]23)[C@@]2(C)CCC(=O)C=C12` showed an IC50 of 0.14 µM. The compound `CC1(C)C[C@@]2(C=O)C(=CC1=O)CC[C@@H]1[C@@H]2CC[C@]2(C)C(=O)CC[C@@H]12` had an IC50 of 0.6 µM. Take `C[C@]12CCC(=O)C(S)=C1CC[C@@H]1C2=CC[C@]2(C)C(=O)CC[C@@H]12`: half-maximal inhibition (IC50) was put at 3.8 µM.

Consider `CCCCCCCC(=O)O[C@H]1C[C@@H]2[C@H](CC[C@]3(C)C(=O)CC[C@@H]23)[C@@]2(C)CCC(=O)C=C12`, for which the IC50 was 0.15 µM. `CCCC(=O)O[C@H]1C[C@@H]2[C@H](CC[C@]3(C)C(=O)CC[C@@H]23)[C@@]2(C)CCC(=O)C=C12`: 0.2 µM corresponded to half-maximal inhibition (IC50). Compound `COCOC1=C2CC[C@@H]3[C@H](CC[C@]4(C)C(=O)CC[C@@H]34)[C@@]2(C)CCC1=O` gave a half-maximal inhibitory concentration (IC50) of 4.4 µM. `CC(=O)O[C@H]1C[C@@H]2[C@H](CC[C@]3(C)C(=O)CC[C@@H]23)[C@@]2(C)CCC(=O)C=C12`: the midpoint of inhibition, the IC50, lay at 4 µM. `C[C@]12CCC(=O)C(S)=C1CC[C@@H]1[C@@H]2CC[C@]2(C)C(=O)CC[C@@H]12` had an IC50 of 3.5 µM.

In the case of `CCC(=O)O[C@H]1C[C@@H]2[C@H](CC[C@]3(C)C(=O)CC[C@@H]23)[C@@]2(C)CCC(=O)C=C12`, inhibition was half-maximal at 0.21 µM (IC50). Compound `CC1(C)C[C@@]2(CO)C(=CC1=O)CC[C@@H]1[C@@H]2CC[C@]2(C)C(=O)CC[C@@H]12` had an IC50 of 5.11 µM.

`CSCSC1=C2CC[C@@H]3C(=CC[C@]4(C)C(=O)CC[C@@H]34)[C@@]2(C)CCC1=O` showed an IC50 of 1.2 µM. Turning to `C[C@@H]1C[C@@]2(CO)C(=CC1=O)CC[C@@H]1[C@@H]2CC[C@]2(C)C(=O)CC[C@@H]12`, the IC50 is 11 µM. The compound `CCCCCCC(=O)O[C@H]1C[C@@H]2[C@H](CC[C@]3(C)C(=O)CC[C@@H]23)[C@@]2(C)CCC(=O)C=C12` gave an IC50 of 0.0951 µM.

The next assay concerns the target T1, Aromatase. This is another data set of the same source.
For `C[C@]12CCC(=O)C=C1CC[C@@H]1[C@@H]2CC[C@]2(C)C(=O)[C@H](O)C[C@@H]12`, the IC50 was 200 µM.

`C[C@]12CCCCC1=CC(=O)[C@@H]1[C@@H]2CC[C@]2(C)C(=O)CC[C@@H]12` showed an IC50 of 2.3 µM. As to `C[C@]12CCCC=C1CC[C@@H]1[C@@H]2CC[C@]2(C)C(=O)[C@H](Br)C[C@@H]12`, the IC50 is 4.1 µM. As to `C[C@@H]1C[C@@H]2[C@H](CC[C@]3(C)[C@@H](O)CC[C@@H]23)c2ccc(O)cc21`, the IC50 is 61 µM. As for `C[C@]12CC[C@H]3[C@@H](CCC4=CCCC[C@@]43C(F)F)[C@@H]1CCC2=O`, the half-maximal inhibitory concentration (IC50) is 1.2 µM. Same read-out and setting: then `C[C@]12CC[C@@H]3c4ccc(O)cc4[C@H](CCCc4ccccc4)C[C@H]3[C@@H]1CC[C@@H]2O`, with 28 µM. With `C[C@]12CCCC(=O)C1=CC[C@@H]1[C@@H]2CC[C@]2(C)C(=O)CC[C@@H]12`, it took 1.2 µM to reach half-maximal inhibition (IC50). Consider `C[C@H]1C[C@@H]2[C@H](CC[C@]3(C)[C@@H](O)CC[C@@H]23)c2ccc(O)cc21`, for which the IC50 is 19 µM. The compound `C[C@]12CCCC=C1CC[C@@H]1[C@@H]2CC[C@]2(C)C(=O)[C@@H](Br)C[C@@H]12` had an IC50 of 5.9 µM. Take `C[C@]12CC[C@H]3[C@@H](CCC4=CC(=O)CC[C@@]43C)[C@@H]1C[C@@H](O)[C@@H]2O`: half-maximal inhibition (IC50) required 899 µM. For `C[C@]12CC[C@H]3[C@@H](CCC4=CCCC[C@@]43C)[C@@H]1C[C@@H](O)[C@@H]2O`, half-maximal inhibition (IC50) was put at 700 µM. `CC(=O)OC[C@]12CCCC=C1CC[C@@H]1[C@@H]2CC[C@]2(C)C(OC(C)=O)CC[C@@H]12` (stereo partly drawn) had a concentration for half-maximal inhibition (IC50) of 38 µM. Regarding `C[C@]12CC[C@H]3[C@@H](CCC4C(=O)[C@H](O)CC[C@@]43C)[C@@H]1CC[C@@H]2O` (stereo partly drawn), the IC50 is 3.9 µM. Turning to `CCCC[C@H]1C[C@@H]2[C@H](CC[C@]3(C)[C@@H](O)CC[C@@H]23)c2ccc(O)cc21`, the IC50 is 28 µM. In turn, `C[C@]12CC[C@H]3[C@@H](CCC4=CCCC[C@@]43CO)[C@@H]1CCC2O` (stereo partly drawn) showed an IC50 of 2.3 µM. With `CCCCO[C@@H]1C[C@@H]2[C@H](CC[C@]3(C)C(=O)CC[C@@H]23)c2ccc(O)cc21`, inhibition was half-maximal at 174 µM (IC50). Same read-out and setting: the same measure for `C[C@]12CC[C@H]3[C@@H](CCC4=CC(=O)CC[C@@]43CO)[C@@H]1C[C@@H](O)[C@@H]2O`: 2400 µM; for `CCCC[C@@H]1C[C@@H]2[C@H](CC[C@]3(C)[C@@H](O)CC[C@@H]23)c2ccc(O)cc21`: 44 µM. Compound `C[C@]12CC[C@H]3[C@@H](CCC4=CCCC[C@@]43CO)[C@@H]1C[C@@H](O)[C@@H]2O` had an IC50 of 971 µM. The compound `CC(=O)OC[C@]12CCCC=C1CC[C@@H]1[C@@H]2CC[C@]2(C)C(O)CC[C@@H]12` (stereo partly drawn) displayed an IC50 of 44 µM.

Regarding `CCO[C@@H]1C[C@@H]2[C@H](CC[C@]3(C)C(=O)CC[C@@H]23)c2ccc(O)cc21`, inhibition was half-maximal at 83.9 µM (IC50). Same read-out and setting: the same measure for `C[C@]12CC[C@@H]3c4ccc(O)cc4[C@@H](c4ccccc4)C[C@H]3[C@@H]1CC[C@@H]2O`: 129 µM; for `C[C@]12CC[C@H]3[C@@H](CCC4=CC(=O)CC[C@@]43C=O)[C@@H]1CCC2=O`: 1.2 µM; for `C[C@]12CCCC=C1CC[C@@H]1[C@@H]2CC[C@]2(C)C(=O)[C@H](O)C[C@@H]12`: 4 µM. Same read-out and setting: the same measure for `C[C@]12CC[C@H]3[C@@H](CCC4=CC(=O)CC[C@@]43CO)[C@@H]1C[C@@H](O)C2=O`: 800 µM; for `C[C@]12CC[C@H]3[C@@H](CCC4=CCCC[C@@]43C=O)[C@@H]1C[C@@H](O)C2=O`: 28 µM.

On to `C[C@]12CC[C@@H]3c4ccc(O)cc4[C@H](c4ccccc4)C[C@H]3[C@@H]1CC[C@@H]2O`, for which the IC50 was 129 µM. `CC(=O)OC1CC[C@H]2[C@@H]3CCC4=CCCC[C@]4(CO)[C@H]3CC[C@]12C` (stereo partly drawn) showed an IC50 of 100 µM. As for `C#C[C@H](O)[C@]12CCCC=C1CC[C@@H]1[C@@H]2CC[C@]2(C)C(=O)CC[C@@H]12`, the IC50 is 61.9 µM. In the case of `C[C@]12CC[C@H]3[C@@H](CCC4=CCCC[C@@]43CO)[C@@H]1C[C@@H](O)C2=O`, 8.99 µM corresponded to half-maximal inhibition (IC50). As to `CO[C@H]1C[C@@H]2[C@H](CC[C@]3(C)[C@@H](O)CC[C@@H]23)c2ccc(O)cc21`, the IC50 is 99.1 µM.

As for `COc1cc2c(cc1O)CC[C@@H]1[C@@H]2CC[C@]2(C)[C@@H](O)CC[C@@H]12` [2-METHOXYESTRADIOL], the IC50 is 20 µM. Compound `C[C@]12CCC(=O)C=C1CC[C@@H]1[C@@H]2CC[C@]2(C)C(=O)CC[C@@H]12` [ANDROSTENEDIONE] gave an IC50 of 1 µM. Compound `C[C@]12CC[C@@H]3c4ccc(O)cc4CC[C@H]3[C@@H]1CCC2=O` [ESTRONE] had an IC50 of 26 µM. The compound `C#CC[C@]12CCC(=O)C=C1CC[C@@H]1[C@@H]2CC[C@]2(C)C(=O)CC[C@@H]12` [PLOMESTANE] gave an IC50 of 1 µM.
